Our source for the IC50 values is patent US20250188079A1, “INHIBITING CYCLIC AMP-RESPONSIVE ELEMENT-BINDING PROTEIN (CREB)” (Forma Therapeutics, Inc., priority 2019, published 2025).

SMILES strings stand for the structures.

CBP, sequence (Q92793 1085-1192): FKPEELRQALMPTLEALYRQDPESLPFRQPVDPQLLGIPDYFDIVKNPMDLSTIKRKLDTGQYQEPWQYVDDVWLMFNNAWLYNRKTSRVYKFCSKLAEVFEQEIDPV

The target of the test is CBP (Homo sapiens (Human), UniProt Q92793). Put plainly: HTRF biochemical assay for CBP activity (TR-FRET, bromodomain). The format is binding. The settings on record: geometric mean, 10-point 3-fold dilution 33 μM to 1.7 nM, read-out: BROMO IC50 TRF TB CBP (μM gmean). The gist of the method:
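Compounds were tested as 10-point, 3-fold dilutions (33 μM to 1.7 nM final) against CBP protein and peptide ligand in pH 7.5 Hepes buffer with GSH, BGG, BSA and Triton X-100 at room temperature for varying times. The TR-FRET 520/490 ratio gave % inhibition versus no-enzyme and DMSO controls, and IC50 came from 4-parameter logistic fits.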
In general terms: Time-resolved FRET reads energy transfer from a long-lived donor to a nearby acceptor.
As for `COC(=O)N1CCc2ccc3c(nc(-c4cccnc4)n3[C@@H](C)Cc3ccccc3)c2C1` [Compound 127], the IC50 was in the range of 0.001 to 0.01 µM.

For the compound `COC(=O)N1CCc2ccc3c(nc(C45CC(C4)C5)n3C[C@H](C(=O)O)c3ccccc3)c2C1` [Compound 128], the IC50 lay within 0.001 to 0.01 µM.

On to `COC(=O)N1Cc2c(ccc3c2nc([C@H]2CC[C@H](C(=O)O)CC2)n3[C@H](C)Cc2ccc(F)c(F)c2)C[C@@H]1C` [Compound 129], for which the IC50 lay in the range of 0.001 to 0.01 µM.

Take `COC(=O)N1CCc2ccc3c(nc([C@H]4C[C@@H](C(=O)O)C4)n3[C@@H](C)Cc3ccccc3C)c2C1` [Compound 130]: the IC50 lay in the range of 0.001 to 0.01 µM.

As to `COC(=O)N1CCc2ccc3c(nc(C4CCCCC4)n3CC[C@@H]3CCC[C@H](C(=O)O)C3)c2C1` [Compound 131], the IC50 fell in the range of 0.001 to 0.01 µM.

With `COC(=O)N1CCc2ccc3c(nc(-c4ccc(C(=O)O)cc4)n3[C@@H](C)Cn3cc(Cl)cn3)c2C1` [Compound 132], the IC50 fell in the range of 0.001 to 0.01 µM.

Regarding `COC(=O)N1CCc2ccc3c(nc(-c4ccc(C(=O)O)c(F)c4)n3[C@@H](C)Cc3ccccc3)c2C1` [Compound 133], the IC50 was in the range of 0.001 to 0.01 µM.

In the case of `COC(=O)N1CCc2ccc3c(nc(C4CCN(C(=O)O)CC4)n3[C@H](C)Cc3ccccc3)c2C1` [Compound 134], the IC50 fell in the range of 0.001 to 0.01 µM.

`COC(=O)N1CCc2ccc3c(nc(C4CCCCC4)n3C[C@](C)(C(=O)O)c3ccccc3)c2C1` [Compound 135]: the IC50 is 0.001 to 0.01 µM.

In the case of `COC(=O)N1CCc2c([C@H]3CCOC3)cc3c(nc([C@H]4CC[C@H](C(=O)O)CC4)n3CCc3ccccc3)c2C1` [Compound 136], the IC50 is 0.001 to 0.01 µM.

With `COC(=O)N1CCc2ccc3c(nc(C4CCCCC4)n3CCc3ccccc3C(=O)O)c2C1` [Compound 137], the IC50 lay within 0.001 to 0.01 µM.

On to `COC(=O)N1CCc2ccc3c(nc(C4CCN(S(C)(=O)=O)CC4)n3[C@@H](C)Cc3ccccc3)c2C1` [Compound 139], for which the IC50 is 0.001 to 0.01 µM.

With `COC(=O)N1CCc2ccc3c(nc(-c4cccc([C@](C)(O)C(=O)O)c4)n3[C@H](C)Cc3ccccc3)c2C1` [Compound 140], the IC50 is 0.001 to 0.01 µM.

For `COC(=O)N1CCc2ccc3c(nc([C@H]4CC[C@H](C(=O)O)CC4)n3[C@@H](C)Cc3ccccn3)c2C1` [Compound 141], the IC50 is 0.001 to 0.01 µM.

Turning to `COC(=O)N1CCc2ccc3c(nc(C4CCCCC4)n3[C@H](C)C[C@H]3CC[C@@H](C(=O)O)CC3)c2C1` [Compound 142], the IC50 lay in the range of 0.001 to 0.01 µM.

Consider `COC(=O)N1CCc2ccc3c(nc([C@@H]4CCC[C@@H](C(=O)O)C4)n3[C@@H](C)Cc3ccc(F)c(F)c3)c2C1` [Compound 143], for which the IC50 is 0.001 to 0.01 µM.

`COC(=O)N1CCc2ccc3c(nc(N4CCC[C@@H](C(=O)O)C4)n3C[C@H](C)c3ccccc3)c2C1` [Compound 144]: the IC50 is 0.001 to 0.01 µM.

Take `COC(=O)N1CCc2ccc3c(nc([C@H]4CC[C@H](C(=O)O)CC4)n3[C@H](C)[C@@H](O)c3ccccc3)c2C1` [Compound 146]: the IC50 was in the range of 0.001 to 0.01 µM.

Take `COC(=O)N1CCc2ccc3c(nc([C@H]4CC[C@H](C(=O)O)CC4)n3[C@@H](C)C[C@H]3CCCCO3)c2C1` [Compound 147]: the IC50 was in the range of 0.001 to 0.01 µM.

`COC(=O)N1CCc2c(C(=O)O)cc3c(nc(C4CCCCC4)n3CCc3ccccc3)c2C1` [Compound 149]: the IC50 fell in the range of 0.001 to 0.01 µM.

For the compound `COC(=O)N1CCc2ccc3c(nc(C4CCCCC4)n3C[C@@](C)(C(=O)O)c3ccccc3)c2C1` [Compound 150], the IC50 lay within 0.001 to 0.01 µM.

In the case of `COC(=O)N1CCc2ccc3c(nc([C@H]4CC[C@H](C(=O)O)CC4)n3[C@@H](CO)Cc3ccccc3)c2C1` [Compound 151], the IC50 is 0.001 to 0.01 µM.

With `COC(=O)N1CCc2ccc3c(nc(C4CCCCC4)n3[C@@H](CO)Cc3cccc(C(=O)O)c3)c2C1` [Compound 152], the IC50 lay within 0.001 to 0.01 µM.

Consider `COC(=O)N1CCc2cc(C#N)c3c(nc([C@H]4CC[C@H](C(=O)O)CC4)n3CCc3ccccc3)c2C1` [Compound 153], for which the 50% inhibitory concentration (IC50) was in the range of 0.001 to 0.01 µM.

In the case of `COC(=O)N1CCc2c(Cl)cc3c(nc([C@H]4CC[C@H](C(=O)O)CC4)n3CCc3ccccc3)c2C1` [Compound 154], the IC50 fell in the range of 0.001 to 0.01 µM.

On to `COC(=O)N1CCc2ccc3c(nc([C@H]4CC[C@H](C(=O)O)CC4)n3CCc3ccc(OC(F)F)cc3)c2C1` [Compound 155], for which the IC50 was 0.001 to 0.01 µM.

In the case of `COC(=O)N1CCc2ccc3c(nc([C@@H]4CCC[C@@H](C(=O)O)C4)n3CC[C@H]3CC[C@H](OC)CC3)c2C1` [Compound 156], the IC50 lay within 0.001 to 0.01 µM.

Consider `COC(=O)N1CCc2ccc3c(nc(C4CCC4)n3C[C@@H](C(=O)O)c3ccccc3)c2C1` [Compound 157], for which the IC50 was 0.001 to 0.01 µM.

Consider `COC(=O)N1CCc2cc(CC(=O)O)c3c(nc(C4CCCCC4)n3CCc3ccccc3)c2C1` [Compound 158], for which the IC50 was in the range of 0.001 to 0.01 µM.

Consider `COC(=O)N1CCc2ccc3c(nc(-c4ccccn4)n3[C@@H](C)Cc3ccccc3)c2C1` [Compound 159], for which the IC50 is 0.001 to 0.01 µM.

As for `COC(=O)N1CCc2ccc3c(nc(C4CCCCC4)n3CCc3ccc(F)c(C(=O)O)c3)c2C1` [Compound 160], the IC50 lay within 0.001 to 0.01 µM.

Consider `COC(=O)N1CCc2ccc3c(nc(N4CCC[C@H](C(=O)O)C4)n3[C@@H](C)Cc3ccccc3)c2C1` [Compound 161], for which the IC50 is 0.001 to 0.01 µM.

Regarding `COC(=O)N1CCc2ccc3c(nc([C@H]4CC[C@@H](S(=O)(=O)NC(C)=O)CC4)n3[C@H](C)Cc3ccccc3)c2C1` [Compound 162], the IC50 was in the range of 0.001 to 0.01 µM.

For the compound `COC(=O)N1CCc2ccc3c(nc(N4CCN(C(=O)CO)CC4)n3[C@@H](C)Cc3ccccc3)c2C1` [Compound 164], the IC50 fell in the range of 0.001 to 0.01 µM.

On to `COC(=O)N1CCc2ccc3c(nc(N4CCC[C@@H](C(=O)O)C4)n3C[C@@H](C)c3ccccc3)c2C1` [Compound 165], for which the IC50 is 0.001 to 0.01 µM.

For the compound `COC(=O)N1CCc2ccc3c(nc([C@H]4CC[C@@H](S(N)(=O)=O)CC4)n3[C@@H](C)Cc3ccccc3)c2C1` [Compound 166], the IC50 lay in the range of 0.001 to 0.01 µM.

As to `COC(=O)N1CCc2ccc3c(nc(C4CCCCC4)n3C[C@H](CC(=O)O)c3ccccc3)c2C1` [Compound 167], the IC50 fell in the range of 0.001 to 0.01 µM.

Consider `COC(=O)N1CCc2ccc3c(nc(C4CCCCC4)n3CC[C@@H]3CCC[C@@H](C(=O)O)C3)c2C1` [Compound 168], for which the IC50 fell in the range of 0.001 to 0.01 µM.

As for `COC(=O)N1CCc2ccc3c(nc([C@H]4CC[C@H](C(=O)O)CC4)n3C[C@H]3CCc4ccccc4C3)c2C1` [Compound 169], the IC50 lay in the range of 0.001 to 0.01 µM.

Take `COC(=O)N1CCc2ccc3c(nc(C4CCCCC4)n3CCc3ccccc3)c2C1` [Compound 170]: the IC50 lay within 0.001 to 0.01 µM.

Regarding `COC(=O)N1CCc2ccc3c(nc([C@H]4CC[C@H](C(=O)O)CC4)n3Cc3ccc(OC(F)F)cc3)c2C1` [Compound 171], the IC50 fell in the range of 0.001 to 0.01 µM.

On to `COC(=O)N1CCc2ccc3c(nc(C4CCCCC4)n3CC[C@H]3CCC[C@H](C(=O)O)C3)c2C1` [Compound 172], for which the IC50 was in the range of 0.001 to 0.01 µM.

Take `COC(=O)N1CCc2ccc3c(nc(C4CCCCC4)n3C[C@H](O)c3cccc(C(=O)O)c3)c2C1` [Compound 173]: the IC50 lay within 0.01 to 0.1 µM.

Turning to `COC(=O)N1CCc2ccc3c(nc(C4CCC(C(=O)O)CC4)n3[C@H](C)C[C@]3(C)CC[C@H](OC)CC3)c2C1` (stereo partly shown) [Compound 175], the IC50 is 0.01 to 0.1 µM.

Consider `COC(=O)N1CCc2ccc3c(nc(C4CCCCC4)n3CC[C@H]3CCC[C@@H](C(=O)O)C3)c2C1` [Compound 177], for which the IC50 is 0.01 to 0.1 µM.

As to `COC(=O)N1CCc2ccc3c(nc(C4CCN(S(=O)(=O)NC(C)=O)CC4)n3[C@@H](C)Cc3ccccc3)c2C1` [Compound 178], the IC50 was 0.01 to 0.1 µM.

For `COC(=O)N1CCc2ccc3c(nc([C@H]4CC[C@H](C(=O)O)CC4)n3[C@H](C)C[C@H]3CCCCO3)c2C1` [Compound 179], the IC50 is 0.01 to 0.1 µM.

Take `COC(=O)N1CCc2ccc3c(nc(C4CCCCC4)n3[C@H](CC(=O)O)c3ccccc3)c2C1` [Compound 180]: the IC50 was in the range of 0.01 to 0.1 µM.

For `COC(=O)N1CCc2cc(C(=O)O)c3c(nc(C4CCCCC4)n3CCc3ccccc3)c2C1` [Compound 181], the IC50 fell in the range of 0.01 to 0.1 µM.

With `COC(=O)N1CCc2ccc3c(nc(N4CCOCC4)n3[C@@H](C)Cc3cccc(C(=O)O)c3)c2C1` [Compound 182], the IC50 lay within 0.01 to 0.1 µM.

`COC(=O)N1CCc2ccc3c(nc([C@H]4CC[C@H](C(=O)O)CC4)n3[C@@H](C)C[C@@H]3CCCOC3)c2C1` [Compound 183]: the IC50 lay within 0.01 to 0.1 µM.

For the compound `COC(=O)N1CCc2ccc3c(nc(-c4cccc([C@](C)(O)C(=O)O)c4)n3[C@@H](C)Cc3ccccc3)c2C1` [Compound 184], the IC50 lay within 0.01 to 0.1 µM.

With `COC(=O)N1CCc2ccc3c(nc(-c4cccc(C(C)(C)C(=O)O)c4)n3[C@@H](C)Cn3cc(Cl)cn3)c2C1` [Compound 185], the IC50 lay within 0.01 to 0.1 µM.

As for `COC(=O)N1CCc2ccc3c(nc([C@H]4CC[C@H](C(=O)O)CC4)n3[C@@H](C)Cc3cnccn3)c2C1` [Compound 186], the IC50 lay in the range of 0.01 to 0.1 µM.

As for `COC(=O)N1CCc2ccc3c(nc(C4CCCCC4)n3C[C@H]3CCCC[C@H]3C(=O)O)c2C1` [Compound 187], the IC50 lay in the range of 0.01 to 0.1 µM.

In the case of `COC(=O)N1CCc2ccc3c(nc([C@H]4CC[C@H](C(=O)O)CC4)n3[C@@H](C)CC3CCOCC3)c2C1` [Compound 188], the IC50 lay in the range of 0.01 to 0.1 µM.

For the compound `COC(=O)N1CCc2ccc3c(nc(C4CCCCC4)n3C[C@@H](C(=O)O)c3ccc(F)c(OC)c3)c2C1` [Compound 190], the IC50 was in the range of 0.01 to 0.1 µM.

As to `COC(=O)N1CCc2ccc3c(nc([C@H]4CC[C@H](C(=O)O)CC4)n3C[C@H](OC)c3ccccc3)c2C1` [Compound 191], the IC50 was 0.01 to 0.1 µM.

`COC(=O)N1CCc2ccc3c(nc([C@H]4CC[C@H](C(=O)O)CC4)n3[C@@H](C)Cc3ccccc3)c2C1` [Compound 192]: the IC50 is 0.01 to 0.1 µM.

For the compound `COC(=O)N1CCc2ccc3c(nc(C4CCCCC4)n3CC[C@H]3CCCC[C@H]3C(=O)O)c2C1` [Compound 193], the IC50 is 0.01 to 0.1 µM.

In the case of `COC(=O)N1CCc2ccc3c(nc(C4CCCCC4)n3C[C@@H]3CCCC[C@@H]3C(=O)O)c2C1` [Compound 195], the IC50 was in the range of 0.01 to 0.1 µM.

What is called IC50 is the concentration at which inhibition is half-maximal.
